From patent US7417156B2, “Orally active, antimalarial, anticancer, artemisinin-derived trioxane dimers” (Johns Hopkins University, priority 2002, dated 2008)
Where two headings read alike, the source gives them in different places.

Legend:
[1] = system: chloroquine-sensitive P. falciparum (NF54); assay: Antimalarial activity in vitro, [3H]hypoxanthine incorporation; assay type: cell-based
60 cell line panel = assay type: cell-based
K-562 = assay: NCI 60 cell line panel screen (SRB); assay type: cell-based, human
RPMI-8226 = assay: NCI 60 cell line panel screen (SRB); assay type: cell-based, human; conditions: RPMI-8226 (Leukemia)
HOP-62 = assay: NCI 60 cell line panel screen (SRB); assay type: cell-based, human
HOP-92 = assay: NCI 60 cell line panel screen (SRB); assay type: cell-based, human
NCI-H23 = assay: NCI 60 cell line panel screen (SRB); assay type: cell-based, human
NCI-H322M = assay type: cell-based
NCI-H460 = assay: NCI 60 cell line panel screen (SRB); assay type: cell-based, human
HCT-116 = assay: NCI 60 cell line panel screen (SRB); assay type: cell-based, human
HT29 = assay: NCI 60 cell line panel screen (SRB); assay type: cell-based, human
SF-539 = assay: NCI 60 cell line panel screen (SRB); assay type: cell-based, human
SNB-19 = assay: NCI 60 cell line panel screen (SRB); assay type: cell-based, human
SNB-75 = assay: NCI 60 cell line panel screen (SRB); assay type: cell-based, human
SK-MEL-28 = assay: NCI 60 cell line panel screen (SRB); assay type: cell-based, human
UACC-257 = assay: NCI 60 cell line panel screen (SRB); assay type: cell-based, human
IGROVI = assay: NCI 60 cell line panel screen (SRB); assay type: cell-based, human
OVCAR-3 = assay: NCI 60 cell line panel screen (SRB); assay type: cell-based, human
OVCAR-8 = assay: NCI 60 cell line panel screen (SRB); assay type: cell-based, human
SK-OV-3 = assay: NCI 60 cell line panel screen (SRB); assay type: cell-based, human
ACHN = assay: NCI 60 cell line panel screen (SRB); assay type: cell-based, human
CAKI-1 = assay: NCI 60 cell line panel screen (SRB); assay type: cell-based, human
RXF 393 = assay: NCI 60 cell line panel screen (SRB); assay type: cell-based, human
PC-3 = assay: NCI 60 cell line panel screen (SRB); assay type: cell-based, human
NCI/ADR-RES = assay: NCI 60 cell line panel screen (SRB); assay type: cell-based, human
BT-549 = assay: NCI 60 cell line panel screen (SRB); assay type: cell-based, human
T-47D = assay: NCI 60 cell line panel screen (SRB); assay type: cell-based, human
[2] = mean value over the 60 cell line panel

`CC1CCC2C(C)C(CC(O)(CO)CC3OC4OC5(C)CCC6C(C)CCC(C3C)C46OO5)OC3OC4(C)CCC1C32OO4` (stereo not drawn) [Compound 5, bis-trioxane vicinal diol] was tested, and the IC50 [1] was “below one nM”, the “antimalarial potency in vitro relative to artemisinin” value [1] was 10 times and the IC50 ([1]; Table I, NF54 strain, read-out: IC50) was 0.59 nM. For the same compound, the “Log10GI50 Delta” value (60 cell line panel) was 2.03, the “Log10GI50 Range” value (60 cell line panel) was 3.47 and the “Log10LC50 Delta” value (60 cell line panel; 60 cell line panel) was 0.37. For the same compound, the “Log10LC50 Range” value (60 cell line panel; 60 cell line panel) was 0.47, the “Log10TGI50 Delta” value (60 cell line panel; 60 cell line panel) was 3.50 and the “Log10TGI50 Range” value (60 cell line panel; 60 cell line panel) was 4.00. The “growth inhibition and cytotoxicity in words” value (60 cell line panel; human cancer cell lines in general) was “strongly inhibitory but not cytotoxic”, the “growth inhibition in words” value (60 cell line panel; leukemia cell line RPM 1-8226, melanoma cell line SK-MEL-5, renal cancer cell line ACHN) was “selectively and strongly inhibitory” and the “Log10GI50 MG MID” value (60 cell line panel; mean over panel) was −5.97. The “Log10LC50 MG MID” value (60 cell line panel; [2]) was −4.09 log10M, the “Log10TGI50 MG MID” value (60 cell line panel; [2]) was −4.50 log10M and the Log10LC50 (K-562; K-562 (Leukemia), LC50: PG=−50) was greater than −4.00 log10M. The Log10TGI50 (K-562; K-562 (Leukemia), TGI: PG=0) was greater than −4.00 log10M, the Log10GI50 (K-562; Leukemia, K-562) was less than −8.00 and the Log10LC50 (RPMI-8226; LC50: PG=−50) was greater than −4.00 log10M. The Log10TGI50 (RPMI-8226; TGI: PG=0) was greater than −4.00 log10M, the Log10LC50 (HOP-62; HOP-62 (Non-Small Cell Lung Cancer), LC50: PG=−50) was greater than −4.00 log10M and the Log10TGI50 (HOP-62; HOP-62 (Non-Small Cell Lung Cancer), TGI: PG=0) was −4.26 log10M. The Log10GI50 (HOP-62; Non-Small Cell Lung Cancer, HOP-62) was −4.66, the Log10LC50 (HOP-92; HOP-92 (Non-Small Cell Lung Cancer), LC50: PG=−50) was −4.05 log10M and the Log10TGI50 (HOP-92; HOP-92 (Non-Small Cell Lung Cancer), TGI: PG=0) was −4.49 log10M. The Log10GI50 (HOP-92; Non-Small Cell Lung Cancer, HOP-92) was −4.93, the Log10LC50 (NCI-H23; NCI-H23 (Non-Small Cell Lung Cancer), LC50: PG=−50) was greater than −4.00 log10M and the Log10TGI50 (NCI-H23; NCI-H23 (Non-Small Cell Lung Cancer), TGI: PG=0) was −4.26 log10M. The Log10GI50 (NCI-H23; Non-Small Cell Lung Cancer, NCI-H23) was −4.83, the Log10LC50 (NCI-H322M; NCI-H322M (Non-Small Cell Lung Cancer), LC50: PG=−50) was −4.16 log10M and the Log10TGI50 (NCI-H322M; NCI-H322M (Non-Small Cell Lung Cancer), TGI: PG=0) was −4.44 log10M. It also gave a Log10GI50 (NCI-H322M; Non-Small Cell Lung Cancer, NCI-H322M) of −4.71, a Log10LC50 (NCI-H460; NCI-H460 (Non-Small Cell Lung Cancer), LC50: PG=−50) greater than −4.00 log10M and a Log10TGI50 (NCI-H460; NCI-H460 (Non-Small Cell Lung Cancer), TGI: PG=0) of −4.40 log10M. It also gave a Log10GI50 (NCI-H460; Non-Small Cell Lung Cancer, NCI-H460) of −5.02, a Log10GI50 (HCT-116; Colon Cancer, HCT-116) of −4.72 and a Log10LC50 (HCT-116; HCT-116 (Colon Cancer), LC50: PG=−50) greater than −4.00 log10M. For the same compound, the Log10TGI50 (HCT-116; HCT-116 (Colon Cancer), TGI: PG=0) was greater than −4.00 log10M, the Log10GI50 (HT29; Colon Cancer, HT29) was less than −8.00 and the Log10LC50 (HT29; HT29 (Colon Cancer), LC50: PG=−50) was greater than −4.00 log10M. It also gave a Log10TGI50 (HT29; HT29 (Colon Cancer), TGI: PG=0) greater than −4.00 log10M, a Log10GI50 (SF-539; CNS Cancer, SF-539) of −4.86 and a Log10LC50 (SF-539; SF-539 (CNS Cancer), LC50: PG=−50) greater than −4.00 log10M. It also gave a Log10TGI50 (SF-539; SF-539 (CNS Cancer), TGI: PG=0) of −4.41 log10M, a Log10GI50 (SNB-19; CNS Cancer, SNB-19) of −4.82 and a Log10LC50 (SNB-19; SNB-19 (CNS Cancer), LC50: PG=−50) greater than −4.00 log10M. For the same compound, the Log10TGI50 (SNB-19; SNB-19 (CNS Cancer), TGI: PG=0) was −4.34 log10M, the Log10GI50 (SNB-75; CNS Cancer, SNB-75) was −4.53 and the Log10LC50 (SNB-75; SNB-75 (CNS Cancer), LC50: PG=−50) was greater than −4.00 log10M. The Log10TGI50 (SNB-75; SNB-75 (CNS Cancer), TGI: PG=0) was −4.04 log10M, the Log10GI50 (SK-MEL-28; Melanoma, SK-MEL-28) was −4.79 and the Log10LC50 (SK-MEL-28; SK-MEL-28 (Melanoma), LC50: PG=−50) was greater than −4.00 log10M. For the same compound, the Log10TGI50 (SK-MEL-28; SK-MEL-28 (Melanoma), TGI: PG=0) was −4.31 log10M, the Log10GI50 (UACC-257; Melanoma, UACC-257) was less than −8.00 and the Log10LC50 (UACC-257; UACC-257 (Melanoma), LC50: PG=−50) was −4.36 log10M. The Log10TGI50 (UACC-257; UACC-257 (Melanoma), TGI: PG=0) was −4.90 log10M, the Log10LC50 (IGROVI; IGROVI (Ovarian Cancer), LC50: PG=−50) was −4.17 log10M and the Log10TGI50 (IGROVI; IGROVI (Ovarian Cancer), TGI: PG=0) was −4.57 log10M. It also gave a Log10GI50 (IGROVI; Ovarian Cancer, IGROVI) of −4.97, a Log10LC50 (OVCAR-3; OVCAR-3 (Ovarian Cancer), LC50: PG=−50) greater than −4.00 log10M and a Log10TGI50 (OVCAR-3; OVCAR-3 (Ovarian Cancer), TGI: PG=0) of −4.45 log10M. It also gave a Log10GI50 (OVCAR-3; Ovarian Cancer, OVCAR-3) of −5.09, a Log10LC50 (OVCAR-8; OVCAR-8 (Ovarian Cancer), LC50: PG=−50) greater than −4.00 log10M and a Log10TGI50 (OVCAR-8; OVCAR-8 (Ovarian Cancer), TGI: PG=0) of −4.47 log10M. It also gave a Log10GI50 (OVCAR-8; Ovarian Cancer, OVCAR-8) of less than −8.00, a Log10GI50 (SK-OV-3; Ovarian Cancer, SK-OV-3) of −4.62 and a Log10LC50 (SK-OV-3; SK-OV-3 (Ovarian Cancer), LC50: PG=−50) greater than −4.00 log10M. For the same compound, the Log10TGI50 (SK-OV-3; SK-OV-3 (Ovarian Cancer), TGI: PG=0) was −4.15 log10M, the Log10LC50 (ACHN; ACHN (Renal Cancer), LC50: PG=−50) was 4.47 log10M and the Log10TGI50 (ACHN; ACHN (Renal Cancer), TGI: PG=0) was less than −8.00 log10M. It also gave a Log10GI50 (ACHN; Renal Cancer, ACHN) of less than −8.00, a Log10LC50 (CAKI-1; CAKI-1 (Renal Cancer), LC50: PG=−50) of −4.13 log10M and a Log10TGI50 (CAKI-1; CAKI-1 (Renal Cancer), TGI: PG=0) of −4.54 log10M. The Log10GI50 (CAKI-1; Renal Cancer, CAKI-1) was −4.94, the Log10LC50 (RXF 393; RXF 393 (Renal Cancer), LC50: PG=−50) was −4.18 log10M and the Log10TGI50 (RXF 393; RXF 393 (Renal Cancer), TGI: PG=0) was −4.53 log10M. For the same compound, the Log10GI50 (RXF 393; Renal Cancer, RXF 393) was −4.89, the Log10LC50 (PC-3; PC-3 (Prostate Cancer), LC50: PG=−50) was greater than −4.00 log10M and the Log10TGI50 (PC-3; PC-3 (Prostate Cancer), TGI: PG=0) was −4.49 log10M. For the same compound, the Log10GI50 (PC-3; Prostate Cancer, PC-3) was less than −8.00, the Log10GI50 (NCI/ADR-RES; Breast Cancer, NCI/ADR-RES) was −4.75 and the Log10LC50 (NCI/ADR-RES; NCI/ADR-RES (Breast Cancer), LC50: PG=−50) was greater than −4.00 log10M. For the same compound, the Log10LC50 (BT-549; BT-549 (Breast Cancer), LC50: PG=−50) was −4.30 log10M, the Log10TGI50 (BT-549; BT-549 (Breast Cancer), TGI: PG=0) was −4.81 log10M and the Log10GI50 (BT-549; Breast Cancer, BT-549) was less than −8.00. It also gave a Log10GI50 (T-47D; Breast Cancer, T-47D) of −7.23, a Log10LC50 (T-47D; T-47D (Breast Cancer), LC50: PG=−50) greater than −4.00 log10M and a Log10TGI50 (T-47D; T-47D (Breast Cancer), TGI: PG=0) of −4.48 log10M.
